Measurements published in patent publication US20150141473A1, “PHARMACEUTICAL DOSAGE FORMS OF TIZANIDINE AND ADMINISTRATION ROUTES THEREOF” (priority 2012, published 2015).
Where a name gives a salt, the structure may show the parent alone.

Columns and labels:
[1] = rabbits, 3.00 mg/kg of tizanidine hydrochloride, preliminary
[2] = background, cited from earlier work
[3] = animal data, local administration; cited from earlier work
[4] = aqueous solution 45.00 mg/mL, pH 4.8
Protocol: The proposed formulations are calculated for a single puff of 50 μL/nostril.

[5] = pH of the formulations / aqueous solutions; format: physicochemical; settings: aqueous solutions without buffer
[6] = highest concentration, 14 days of treatment tid in rabbits
[7] = Human absorption: Tizaspray intranasally vs Sirdalud tablets, randomised cross-over, plasma levels of tizanidine by LC/MS/MS over 12 hours; settings: highest concentration, single administration in humans
Protocol: The plasma levels of tizanidine were determined by LC/MS/MS over 12 hours from the administration.
R=Sirdalud tablet; T1=1*70 μL/puff by intranasal route; T2=2*70 μL/puff by intranasal route.

| Structure (SMILES) | bioavailability by intranasal route ([1]; IN vs IM) | intranasal absorption ([1]; IN, without any enhancer) | absorption by oral route ([2]; 2 or 4 mg tablets) | T1/2z ([2]; known pharmacokinetic profile) [h] | Tmax ([2]; known pharmacokinetic profile) [h] | first-pass effect ([2]; oral route) | activity compared with clonidine [3] | tolerability on the nasal mucosa (redness or pain) [4] | pH of aqueous solutions [5] | tolerability on the nasal mucosa [6] | absorption by intranasal route [7] |
| --- | --- | --- | --- | --- | --- | --- | --- | --- | --- | --- | --- |
| Clc1ccc2nsnc2c1NC1=NCCN1 [Tizanidine, 5-chloro-N-(4,5-dihydro-1H-imidazol-2-yl)-2,1,3-benzothia-diazol-4-amine] | close to that of intramuscular route (IM) | rapidly absorbed | well and rapidly absorbed by oral route | 1 to 2 | 1 to 2 | extensive first-pass effect | equivalent activity of tizanidine and clonidine | – | – | – | – |
| Clc1ccc2nsnc2c1NC1=NCCN1 [tizanidine hydrochloride] | – | – | – | – | – | – | – | tolerated by the nasal mucosa without any local side effect | 4.8 | well tolerated on the nasal mucosa | rapidly and completely absorbed |
